Measured values taken from ChEMBL document CHEMBL1201862, “PubChem BioAssay data set” (2004).
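Briefly, cells in 96-well plates were exposed to five compound concentrations for 48 h, and endpoints were estimated by linear interpolation. GI50 is the concentration that inhibits growth by half.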 The source made the active and inactive calls. No stated cut-off is given here; in the data, active = GI50 up to about 1.1 µM and inactive = higher.

How the values were obtained:
Assay in all cases: NCI tumour cell line growth inhibition, 48 h
NCI-H226 = system: NCI-H226
A498 = system: A498
HOP-62 = system: HOP-62
SK-OV-3 = system: SK-OV-3
SK-MEL-5 = system: SK-MEL-5
SF-539 = system: SF-539
A549 = system: A549
M14 = system: M14
SN12C = system: SN12C
OVCAR-3 = system: OVCAR-3
DLD-1 = system: DLD-1
MOLT-4 = system: MOLT-4
ACHN = system: ACHN
HCT-116 = system: HCT-116
SF-295 = system: SF-295
SF-268 = system: SF-268
COLO 205 = system: COLO 205
IGROV-1 = system: IGROV-1

Measured: GI50

CC#CC1/C(=C\C(=O)OC)CCCC1O (stereo not given)
inactive: NCI-H226 > 100 µM | A498 > 100 µM | HOP-62 > 100 µM | SK-OV-3 > 100 µM | SK-MEL-5 > 100 µM | SF-539 > 100 µM | A549 > 100 µM | M14 > 100 µM | SN12C > 100 µM | OVCAR-3 > 100 µM | DLD-1 > 100 µM | MOLT-4 > 100 µM | ACHN > 100 µM | HCT-116 > 100 µM | SF-295 > 100 µM | SF-268 > 100 µM

COC(=O)C(C(=O)C(=O)Nc1ccccc1C)c1nc2ccc([N+](=O)[O-])cc2nc1O (stereo not given)
inactive: NCI-H226 > 100 µM | A498 > 100 µM | HOP-62 > 100 µM | SK-OV-3 > 100 µM | SK-MEL-5 > 100 µM | SF-539 > 100 µM | A549 > 100 µM | M14 > 100 µM | COLO 205 > 100 µM | SN12C > 100 µM | OVCAR-3 > 100 µM | DLD-1 > 100 µM | IGROV-1 > 100 µM | MOLT-4 > 100 µM | ACHN > 100 µM | HCT-116 > 100 µM | SF-295 > 100 µM | SF-268 > 100 µM

CC1(C)OC(C[C@]2(C#N)C[C@H](CCl)OC(C)(C)O2)C[C@@H](C[C@]2(C#N)C[C@H](CCl)OC(C)(C)O2)O1 (stereo not given in full)
inactive: NCI-H226 > 100 µM | A498 > 100 µM | HOP-62 > 100 µM | SK-OV-3 > 100 µM | SK-MEL-5 51.6 µM | SF-539 > 100 µM | A549 > 100 µM | M14 > 100 µM | COLO 205 > 100 µM | SN12C > 100 µM | OVCAR-3 > 100 µM | DLD-1 > 100 µM | IGROV-1 > 100 µM | MOLT-4 38.8 µM | ACHN > 100 µM | HCT-116 60.4 µM | SF-295 > 100 µM | SF-268 > 100 µM

O=c1/c(=C/c2ccco2)sc2nc3ccccc3n12
inactive: NCI-H226 > 10 µM | A498 > 10 µM | HOP-62 > 100 µM | SK-OV-3 > 100 µM | SK-MEL-5 > 10 µM | SF-539 > 10 µM | A549 > 10 µM | M14 > 10 µM | COLO 205 > 100 µM | SN12C > 10 µM | OVCAR-3 > 10 µM | DLD-1 > 10 µM | IGROV-1 > 10 µM | MOLT-4 > 10 µM | ACHN > 10 µM | HCT-116 > 10 µM | SF-295 > 10 µM | SF-268 > 10 µM

CSc1ccc2c(cc1=O)[C@@H](NC(=O)c1cc(O)c(O)c(O)c1)CCc1cc(O)c(O)c(O)c1-2
inactive: NCI-H226 16 µM | A498 > 100 µM | HOP-62 49.5 µM | SK-OV-3 > 100 µM | SK-MEL-5 19.8 µM | SF-539 24.7 µM | A549 27.7 µM | M14 19.6 µM | COLO 205 28 µM | SN12C 18.1 µM | OVCAR-3 31 µM | DLD-1 21.2 µM | MOLT-4 18.5 µM | ACHN 34.1 µM | HCT-116 16 µM | SF-295 23.7 µM | SF-268 37.4 µM

O=C1C(Cl)=C(Cl)C(=O)N1c1ccc(Cl)c(Cl)c1Cl
inactive: NCI-H226 > 100 µM | A498 > 100 µM | HOP-62 > 100 µM | SK-OV-3 > 100 µM | SK-MEL-5 > 100 µM | SF-539 > 100 µM | A549 > 100 µM | M14 52.7 µM | COLO 205 29.9 µM | SN12C 58.1 µM | OVCAR-3 41.6 µM | DLD-1 34.9 µM | IGROV-1 > 100 µM | MOLT-4 32.6 µM | ACHN 75 µM | HCT-116 85.9 µM | SF-295 > 100 µM | SF-268 38 µM

NC(=O)COc1ccc(Br)cc1Br
inactive: NCI-H226 > 100 µM | A498 > 100 µM | HOP-62 > 100 µM | SK-OV-3 > 100 µM | SK-MEL-5 > 100 µM | SF-539 > 100 µM | A549 > 100 µM | M14 > 100 µM | COLO 205 > 100 µM | SN12C > 100 µM | OVCAR-3 > 100 µM | DLD-1 > 100 µM | IGROV-1 > 100 µM | MOLT-4 > 100 µM | ACHN > 100 µM | HCT-116 > 100 µM | SF-295 > 100 µM | SF-268 > 100 µM

N#CC1CCCCC1NC1(C#N)CCCCC1 (stereo not given)
inactive: NCI-H226 > 100 µM | A498 > 100 µM | HOP-62 > 100 µM | SK-OV-3 > 100 µM | SK-MEL-5 > 100 µM | SF-539 > 100 µM | A549 > 100 µM | M14 > 100 µM | COLO 205 > 100 µM | SN12C > 100 µM | OVCAR-3 > 100 µM | DLD-1 > 100 µM | IGROV-1 > 100 µM | MOLT-4 > 100 µM | SF-295 > 100 µM | SF-268 > 100 µM

CC(=O)OC[C@@H](COC(=O)/C=C/c1ccc(O)cc1)OC1OC(CO)C(O)C(O)C1O (stereo not given in full)
inactive: NCI-H226 > 100 µM | A498 > 100 µM | HOP-62 > 100 µM | SK-OV-3 > 100 µM | SK-MEL-5 > 100 µM | SF-539 > 100 µM | A549 > 100 µM | M14 > 100 µM | COLO 205 > 100 µM | SN12C > 100 µM | OVCAR-3 > 100 µM | DLD-1 > 100 µM | IGROV-1 > 100 µM | MOLT-4 > 100 µM | ACHN > 100 µM | HCT-116 > 100 µM | SF-295 > 100 µM | SF-268 > 75.5 µM

O=C1OCCC1C(O)C1c2ccccc2-c2ccccc21 (stereo not given)
inactive: NCI-H226 > 100 µM | A498 > 100 µM | HOP-62 > 100 µM | SK-OV-3 > 100 µM | A549 > 100 µM | M14 > 100 µM | COLO 205 > 100 µM | SN12C > 100 µM | OVCAR-3 > 100 µM | DLD-1 > 100 µM | IGROV-1 > 100 µM | MOLT-4 > 100 µM | ACHN > 100 µM | HCT-116 > 100 µM | SF-295 > 100 µM | SF-268 > 100 µM

S=c1c2ccccc2c(=S)n2n1CC=CC2
inactive: NCI-H226 > 100 µM | A498 76.2 µM | SK-OV-3 > 100 µM | SK-MEL-5 > 100 µM | SF-539 > 100 µM | A549 > 100 µM | M14 > 100 µM | COLO 205 > 100 µM | SN12C > 100 µM | OVCAR-3 > 100 µM | DLD-1 > 100 µM | IGROV-1 > 100 µM | MOLT-4 > 100 µM | ACHN > 100 µM | HCT-116 > 100 µM | SF-295 > 100 µM | SF-268 > 100 µM

CC(=O)NC(CCCNC(=O)OCc1ccccc1)C(=O)NCc1ccccc1 (stereo not given)
inactive: NCI-H226 > 100 µM | A498 > 100 µM | HOP-62 > 100 µM | SK-OV-3 > 100 µM | SK-MEL-5 > 100 µM | SF-539 > 100 µM | A549 > 100 µM | M14 > 100 µM | COLO 205 > 100 µM | SN12C > 100 µM | OVCAR-3 > 100 µM | DLD-1 > 100 µM | IGROV-1 > 100 µM | MOLT-4 > 100 µM | ACHN > 100 µM | HCT-116 > 100 µM | SF-295 > 100 µM | SF-268 > 100 µM

O=C(O)C12C3C4C1C1C2C3C41I (stereo not given)
inactive: NCI-H226 > 100 µM | A498 > 100 µM | HOP-62 > 100 µM | SK-OV-3 > 100 µM | SK-MEL-5 > 100 µM | SF-539 > 100 µM | A549 > 100 µM | M14 > 100 µM | COLO 205 > 100 µM | SN12C > 100 µM | OVCAR-3 > 100 µM | DLD-1 > 100 µM | IGROV-1 > 100 µM | MOLT-4 > 100 µM | ACHN > 100 µM | HCT-116 > 100 µM | SF-295 > 100 µM | SF-268 > 100 µM

CCCCCCc1cc2c(C)c(C)c(=O)oc2cc1OCCCOc1cc2oc(=O)c(C)c(C)c2cc1CCCCCC
inactive: A498 > 100 µM | HOP-62 > 100 µM | SK-OV-3 > 100 µM | SK-MEL-5 > 100 µM | SF-539 > 100 µM | A549 > 100 µM | M14 > 100 µM | OVCAR-3 > 100 µM | DLD-1 > 100 µM | IGROV-1 > 100 µM | MOLT-4 > 100 µM | HCT-116 > 100 µM | SF-295 > 100 µM | SF-268 > 100 µM

CCOC(=O)C(C)(C)Oc1ccc2c(C)c(-c3ccc(Cl)cc3)c(=O)oc2c1
inactive: NCI-H226 14.9 µM | A498 > 100 µM | HOP-62 89.1 µM | SK-MEL-5 13.4 µM | SF-539 > 100 µM | A549 37.6 µM | M14 74.8 µM | COLO 205 42.6 µM | SN12C > 100 µM | OVCAR-3 85.1 µM | DLD-1 47.6 µM | IGROV-1 75.9 µM | MOLT-4 20 µM | ACHN 98.6 µM | HCT-116 43 µM | SF-295 79.6 µM | SF-268 > 100 µM

Cc1cc(=O)oc2c1cc(OCC(=O)OCCN1CCCCC1)c1occ(C)c12
inactive: NCI-H226 > 100 µM | A498 > 100 µM | SK-MEL-5 > 100 µM | SF-539 > 100 µM | A549 > 100 µM | M14 > 100 µM | SN12C > 100 µM | OVCAR-3 > 100 µM | DLD-1 > 100 µM | MOLT-4 > 100 µM | ACHN > 100 µM | HCT-116 > 100 µM | SF-295 > 100 µM
